Laboratory results reported in ChEMBL document CHEMBL5257106, “Design, synthesis, and biological evaluation of novel HDAC inhibitors with a 3-(benzazol-2-yl)quinoxaline framework” (Bioorg Med Chem Lett, 2023).
Active and inactive are the calls of the source. The calls are words filed in the database; no cut-off is given here.

Assays:
[1] = Cytotoxicity against HUVEC cells assessed as inhibition of cell growth by MTT assay; details: human
HCT-116 [2] = assay: Induction of apoptosis in human HCT-116 cells assessed as necrotic cells at 1 uM incubated for 24 hrs by Annexin V-FITC/PI staining based flow cytometry analysis (reference value: 0.00%); type: functional
[3] = target: T1, DNA topoisomerase 1 (Homo sapiens) (UniProt P11387); assay: Inhibition of topoisomerase 1 in human HCT-116 cells assessed as suppression of Topo 1 protein expression incubated for 24 hrs by Western blot analysis; type: cell-based; details: dose 0.5-1 µM
T1 sequence (whole entry): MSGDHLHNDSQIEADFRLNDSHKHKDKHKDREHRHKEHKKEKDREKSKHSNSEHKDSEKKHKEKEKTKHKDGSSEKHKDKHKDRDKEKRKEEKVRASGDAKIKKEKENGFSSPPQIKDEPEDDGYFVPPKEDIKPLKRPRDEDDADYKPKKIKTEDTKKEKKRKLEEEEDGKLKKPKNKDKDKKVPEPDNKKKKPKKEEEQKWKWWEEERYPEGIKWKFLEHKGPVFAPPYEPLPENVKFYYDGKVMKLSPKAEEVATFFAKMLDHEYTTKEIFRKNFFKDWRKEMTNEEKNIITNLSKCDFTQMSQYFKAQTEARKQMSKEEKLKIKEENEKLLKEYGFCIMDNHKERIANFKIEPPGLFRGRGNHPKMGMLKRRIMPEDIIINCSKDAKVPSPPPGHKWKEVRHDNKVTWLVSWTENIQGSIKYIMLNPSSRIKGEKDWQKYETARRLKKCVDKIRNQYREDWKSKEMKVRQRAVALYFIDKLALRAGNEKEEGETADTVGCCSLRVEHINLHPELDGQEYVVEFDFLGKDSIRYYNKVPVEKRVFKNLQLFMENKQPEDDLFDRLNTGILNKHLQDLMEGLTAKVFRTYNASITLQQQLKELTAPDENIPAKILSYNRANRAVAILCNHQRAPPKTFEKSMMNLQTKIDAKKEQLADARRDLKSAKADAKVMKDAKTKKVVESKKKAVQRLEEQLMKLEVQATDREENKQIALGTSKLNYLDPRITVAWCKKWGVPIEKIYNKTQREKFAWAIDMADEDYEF

RS4-11 [4] = assay: Antiproliferative activity against human RS4-11 cells assessed as inhibition of cell growth by MTT assay; type: functional, cell-based
K562 [5] = assay: Antiproliferative activity against human K562 cells assessed as inhibition of cell growth by MTT assay; type: functional, cell-based
[6] = target: T2, Histone deacetylase (Homo sapiens) (UniProt Q13547+O15379+Q9UBN7+Q92769+Q9UQL6+Q8WUI4+Q9BY41+Q96DB2+P56524+Q9UKV0+Q969S8); assay: Inhibition of HDAC in human HCT-116 cells assessed as increase in alpha tubulin acetylation incubated for 24 hrs by Western blot analysis; type: cell-based; details: dose 0.5-1 µM
K562 [7] = assay: Potency index, ratio of SAHA IC50 to test compound IC50 for antiproliferative activity against human K562 cells assessed as inhibition of cell growth by MTT assay; type: functional
HCT-116 [8] = assay: Induction of apoptosis in human HCT-116 cells assessed as early apoptotic cells at 0.5 uM incubated for 24 hrs by Annexin V-FITC/PI staining based flow cytometry analysis (reference value: 6.50%); type: functional
HCT-116 [9] = assay: Induction of apoptosis in human HCT-116 cells assessed as necrotic cells at 0.5 uM incubated for 24 hrs by Annexin V-FITC/PI staining based flow cytometry analysis (reference value: 0.00%); type: functional
HCT-116 [10] = assay: Induction of apoptosis in human HCT-116 cells assessed as total apoptotic cells at 1 uM incubated for 24 hrs by Annexin V-FITC/PI staining based flow cytometry analysis (reference value: 6.823%); type: functional
HCT-116 [11] = assay: Induction of apoptosis in human HCT-116 cells assessed as increase in Bax protein expression at 0.5 to 1 uM incubated for 24 hrs by Western blot analysis; type: functional, cell-based; details: dose 0.5-1 µM
RS4-11 [12] = assay: Potency index, ratio of SAHA IC50 to test compound IC50 for antiproliferative activity against human RS4-11 cells assessed as inhibition of cell growth by MTT assay; type: functional
A2780 = assay: Antiproliferative activity against human A2780 cells assessed as inhibition of cell growth by MTT assay; type: functional, cell-based
HL-60 [13] = assay: Potency index, ratio of SAHA IC50 to test compound IC50 for antiproliferative activity against human HL-60 cells assessed as inhibition of cell growth by MTT assay; type: functional
Histone deacetylase 2 = Histone deacetylase 2 (Homo sapiens, UniProt Q92769); assay: Inhibition of HDAC2 (unknown origin)
MCF7 = assay: Antiproliferative activity against human MCF7 cells assessed as inhibition of cell growth by MTT assay; type: functional, cell-based
HL-60 [14] = assay: Antiproliferative activity against human HL-60 cells assessed as inhibition of cell growth by MTT assay; type: functional, cell-based
Histone deacetylase 3 = Histone deacetylase 3 (Homo sapiens, UniProt O15379); assay: Inhibition of HDAC3 (unknown origin)
HCT-116 [15] = assay: Induction of cell cycle arrest in human HCT-116 assessed as decrease in G0/G1 phase cells at 0.5 uM incubated for 48 hrs by flow cytometric analysis (reference value: 63.51%); type: functional; design: scale not given: the % may be the effect or the level left
[16] = target: T2, Histone deacetylase (Homo sapiens); assay: Inhibition of HDAC in human HCT-116 cells assessed as increase in histone H3 acetylation incubated for 24 hrs by Western blot analysis; type: cell-based; details: dose 0.5-1 µM
Histone deacetylase 11 = target: T3, Histone deacetylase 11 (Homo sapiens, UniProt Q96DB2); assay: Inhibition of HDAC11 (unknown origin)
T3 sequence (Q96DB2 whole entry): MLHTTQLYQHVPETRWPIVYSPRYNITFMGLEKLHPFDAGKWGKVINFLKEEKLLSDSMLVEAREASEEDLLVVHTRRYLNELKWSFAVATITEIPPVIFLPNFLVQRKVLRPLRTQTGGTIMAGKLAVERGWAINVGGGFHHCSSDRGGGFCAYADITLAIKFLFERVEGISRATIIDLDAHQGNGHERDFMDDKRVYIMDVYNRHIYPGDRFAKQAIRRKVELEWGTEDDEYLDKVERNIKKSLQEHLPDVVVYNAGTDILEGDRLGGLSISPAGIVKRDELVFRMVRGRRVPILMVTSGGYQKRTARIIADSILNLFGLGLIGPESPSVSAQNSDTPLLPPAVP

HCT-116 [17] = assay: Induction of cell cycle arrest in human HCT-116 assessed as S phase cells at 1 uM incubated for 48 hrs by flow cytometric analysis (reference value: 12.79%); type: functional
HCT-116 [18] = assay: Induction of apoptosis in human HCT-116 cells assessed as upregulation of cleaved PARP expression at 0.5 to 1 uM incubated for 24 hrs by Western blot analysis; type: functional, cell-based; details: dose 0.5-1 µM
HCT-116 [19] = assay: Induction of apoptosis in human HCT-116 cells assessed as decrease in Bcl-2 protein expression incubated for 24 hrs by Western blot analysis; type: functional, cell-based; details: dose 0.5-1 µM
HCT-116 [20] = assay: Induction of apoptosis in human HCT-116 cells assessed as late apoptotic cells at 0.5 uM incubated for 24 hrs by Annexin V-FITC/PI staining based flow cytometry analysis (reference value: 0.323%); type: functional
[21] = target: T1, DNA topoisomerase 1 (Homo sapiens); assay: Inhibition of topoisomerase 1 (unknown origin) assessed as effect on DNA by gel electrophoresis

Histone deacetylase 2, sequence (Q92769 whole entry): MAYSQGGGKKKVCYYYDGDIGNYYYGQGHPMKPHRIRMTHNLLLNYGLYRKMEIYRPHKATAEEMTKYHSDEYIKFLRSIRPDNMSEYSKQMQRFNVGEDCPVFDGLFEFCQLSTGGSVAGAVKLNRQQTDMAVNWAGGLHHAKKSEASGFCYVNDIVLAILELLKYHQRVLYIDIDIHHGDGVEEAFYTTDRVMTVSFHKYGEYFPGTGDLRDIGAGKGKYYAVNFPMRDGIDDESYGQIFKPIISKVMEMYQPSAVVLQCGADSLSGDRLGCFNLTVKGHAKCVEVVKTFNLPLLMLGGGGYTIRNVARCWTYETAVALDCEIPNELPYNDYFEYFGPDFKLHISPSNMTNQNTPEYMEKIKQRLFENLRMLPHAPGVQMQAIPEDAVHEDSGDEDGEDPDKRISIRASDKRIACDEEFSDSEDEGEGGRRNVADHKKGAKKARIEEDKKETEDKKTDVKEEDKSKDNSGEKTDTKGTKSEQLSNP
Histone deacetylase 3, sequence (O15379 whole entry): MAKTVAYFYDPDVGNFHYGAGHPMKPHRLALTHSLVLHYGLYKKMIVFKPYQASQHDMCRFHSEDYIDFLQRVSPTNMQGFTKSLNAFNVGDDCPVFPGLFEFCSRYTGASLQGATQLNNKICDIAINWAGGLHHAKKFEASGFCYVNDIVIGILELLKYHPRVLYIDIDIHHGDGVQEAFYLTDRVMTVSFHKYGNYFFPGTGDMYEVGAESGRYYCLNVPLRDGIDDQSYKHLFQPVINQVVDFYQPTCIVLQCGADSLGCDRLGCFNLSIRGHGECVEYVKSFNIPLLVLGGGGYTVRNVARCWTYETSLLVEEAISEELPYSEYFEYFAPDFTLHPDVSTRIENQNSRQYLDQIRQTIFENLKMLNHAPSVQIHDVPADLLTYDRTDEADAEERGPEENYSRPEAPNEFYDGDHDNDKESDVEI

SMILES: O=C(CCCCCCNc1nc2ccccc2nc1-c1nc2ccccc2o1)NO
- IC50 [1]: 19.1 µM
- Activity (HCT-116 [2]): 0.103%
- inhibition [3]: Dose-Dependent Effect
- IC50 (RS4-11 [4]): 0.89 µM
- IC50 (K562 [5]): 0.89 µM
- inhibition [6]: Dose-Dependent Effect
- Ratio IC50 (K562 [7]): 2
- Activity (HCT-116 [8]): 28.1%
- Activity (HCT-116 [9]): 0.241%
- Activity (HCT-116 [10]): 51.8%
- Activity (HCT-116 [11]): Active
- Ratio IC50 (RS4-11 [12]): 2
- IC50 (A2780): 1.76 µM
- Ratio IC50 (HL-60 [13]): 2
- IC50 (Histone deacetylase 2): 0.0344 µM
- IC50 (MCF7): 1.27 µM
- IC50 (HL-60 [14]): 0.89 µM
- IC50 (Histone deacetylase 3): 0.0155 µM
- Activity (HCT-116 [15]): 51.68%
- inhibition [16]: Dose-Dependent Effect
- IC50 (Histone deacetylase 11): 0.11 µM
- Activity (HCT-116 [17]): 13.79%
- Activity (HCT-116 [18]): Active
- Activity (HCT-116 [19]): Dose-Dependent Effect
- Activity (HCT-116 [20]): 7.21%
- inhibition [21]: inactive
